In US10829491B2, “Pyrimido[5,4-B]indolizine or pyrimido[5,4-B]pyrrolizine compound, preparation method and use thereof” (SHANGHAI INSTITUTE OF MATERIA MEDICA, CHINESE ACADEMY OF …, priority 2016, dated 2020):
Read-outs that look alike come from different tables or passages of the source.

Legend:
[1] = target: BTK tyrosine kinase protein (Homo sapiens (Human), UniProt Q06187); assay: Inhibitory activity against Bruton kinase (BTK) at molecular level (ELISA); format: biochemical
Method: Poly(Glu, Tyr) 4:1 as a substrate for enzyme catalyzed reaction was diluted with potassium-free PBS (10 mM sodium phosphate buffer, 150 mM NaCl, pH 7.2-7.4) to […] to coat a ELISA plate. The plate was cultured at 37° C. for 12-16 h, washed with 200 μL/well of T-PBS (PBS containing 0.1% of Tween-20) three times, and dried in an oven at 37° C. for 1-2 h. Into the above ELISA plate coated with the substrate, an ATP solution diluted with a reaction buffer (50 mM HEPES, pH 7.4, 50 mM MgCl2, 5 mM MnCl2, 0.2 mM Na3VO4, 1 mM DTT) was first added at 50 μL/well (concentration of 10 μM). Then, a test compound diluted by 1% DMSO to a suitable concentration was added (10 μL/well), and negative control well and positive compound control well were provided separately. Finally, the reaction was initiated by adding BTK tyrosine kinase protein diluted in 40 μL of reaction buffer.
The above reaction system was placed on a shaker (100 rpm) at 37° C. for 1 h, then washed with T-PBS for three times, primary antibody PY99 (Cell Signaling Technology) was added at 100 μL/well, and the reaction was conducted on the shaker at 37° C. for 0.5 h. After the plate was washed with T-PBS, secondary antibody horseradish peroxidase-labeled goat anti-mouse IgG was added at 100 μL/well, and the reaction was conducted on the shaker at 37° C. for 0.5 h. After the plate was washed with T-PBS, 2 mg/mL of OPD developing solution was added at 100 μL/well, and the reaction was conducted in the dark at 25° C. for 1 to 10 minutes. Then the reaction was quenched by adding 2 M H2SO4 at 50 μL/well. The data were read on a wavelength-tunable microplate reader ELISA SPECTRA MAX 190 at a wavelength of 490 nm.
IC50 was calculated by fitting the inhibition curve using a four-parameter method.

[2] = tested on: human B lymphoma Ramos cells; assay: In vitro proliferation inhibition of Ramos cells (MTT); format: cell-based; conditions: for IC50: Homo sapiens, Ramos cells, 48 hours, MTT
Method: (§1) Cells were seeded at 10000-15000/well into a 96-well culture plate, different concentrations of a test compound were added to each well (3 replicate-wells for each concentration), and blank control, positive compound control and negative control were provided. 48 hours after the administration of the drugs, […] of MTT (5 mg/ml) was added, and the plate was incubated at 37° C. for 4 h, and then […] of a triad solution (10% SDS, 5% isobutanol, 0.01 M HCl) was added. The resultant was cultured at 37° C. overnight, and the OD value was measured at a wavelength of 570 nm using a wavelength-tunable microplate reader ELISA SPECTRA MAX 190. […] The IC50 value was calculated by fitting the inhibition curve using a four-parameter method. The experiment was repeated 3 times independently.

[3] = tested on: human diffuse large B lymphoma TMD8 cells; assay: In vitro proliferation inhibition of TMD8 cells (MTT); format: cell-based; conditions: 48 hours, read-out: IC50 for the inhibition TMD of cells
Method: as §1, with “added.” for “added. The resultant was cultured at 37° C. overnight, and the OD value was measured at a wavelength of 570 nm using a wavelength-tunable microplate reader ELISA SPECTRA MAX 190.”

[4] = BTK kinase ELISA, ATP 10 μM, read-out: IC50

Sequence of BTK tyrosine kinase protein (Q06187 whole entry): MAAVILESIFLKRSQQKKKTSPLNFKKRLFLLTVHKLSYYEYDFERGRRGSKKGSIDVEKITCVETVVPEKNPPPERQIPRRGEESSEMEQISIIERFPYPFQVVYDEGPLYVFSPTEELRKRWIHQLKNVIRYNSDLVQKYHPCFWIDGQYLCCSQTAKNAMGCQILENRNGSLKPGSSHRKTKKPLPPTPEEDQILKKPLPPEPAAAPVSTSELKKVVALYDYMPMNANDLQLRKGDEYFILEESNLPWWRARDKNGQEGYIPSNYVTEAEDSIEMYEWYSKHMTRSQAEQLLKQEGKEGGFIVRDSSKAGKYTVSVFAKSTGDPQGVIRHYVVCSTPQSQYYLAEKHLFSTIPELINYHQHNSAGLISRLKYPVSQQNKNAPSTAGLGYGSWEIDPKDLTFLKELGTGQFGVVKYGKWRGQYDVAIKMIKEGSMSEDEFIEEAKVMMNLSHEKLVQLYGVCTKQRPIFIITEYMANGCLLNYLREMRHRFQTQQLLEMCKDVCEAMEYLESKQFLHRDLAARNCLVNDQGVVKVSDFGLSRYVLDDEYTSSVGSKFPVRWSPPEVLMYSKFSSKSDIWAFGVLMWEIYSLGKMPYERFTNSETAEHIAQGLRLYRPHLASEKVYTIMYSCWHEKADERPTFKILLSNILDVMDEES

Row | Compound | IC50 [1, 4] [nM] | IC50 [2] [nM] | other results
1 | C=CC(=O)NC1CCc2c(-c3ccc(Oc4ccccc4)cc3)c3c(N)ncnc3n2C1 (racemic) [Compound S3, N-(4-amino-5-(4-phenoxyphenyl)-6,7,8,9-tetrahydropyrimido[5,4-b]indolizine-8-yl)acrylamide] | – | 11400 ± 800 | –
2 | C=CC(=O)NC1(C(=O)N[C@@H]2CCc3c(-c4ccc(Oc5ccccc5)cc4)c4c(N)ncnc4n3C2)CC1 [Compound S8, (R)-1-acrylamido-N-(4-amino-5-(4-phenoxyphenyl)-6,7,8,9-tetrahydropyrimido[5,4-b]indolizine-8-yl)cyclopropanecarboxamide] | > 100 | – | –
3 | C=C1c2c(-c3ccc(Oc4ccccc4)cc3)c3c(N)ncnc3n2C[C@@H]1NC(=O)C#CC [Compound S19, (R)—N-(4-amino-6-methylidene-5-(4-phenoxyphenyl)-7,8-dihydro-6H-pyrimido[5,4-b]pyrrolizin-7-yl)but-2-ynylamide] | – | 16900 ± 7900 | IC50 [1]: < 1 nM
4 | C=CC(=O)N[C@H]1Cn2c(c(-c3ccc(C(=O)Nc4ccccn4)cc3)c3c(N)ncnc32)C1=C [Compound S20, (R)-4-(7-acrylamido-4-amino-6-methylidene-7,8-dihydro-6H-pyrimido[5,4-b]pyrrolizin-5-yl)-N-(pyridin-2-yl)benzamide] | 1 to 10 | – | –
5 | C=CC(=O)N1CCC[C@@H](n2nc(-c3ccc(Oc4ccccc4)cc3)c3c(N)ncnc32)C1 [Ibrutinib, reference compound] | – | ~8530 | IC50 [3]: 4.5 nM
6 | C=CS(=O)(=O)N[C@@H]1CCc2c(-c3ccc(Oc4ccccc4)cc3)c3c(N)ncnc3n2C1 [Compound S9, (R)—N-(4-amino-5-(4-phenoxyphenyl)-6,7,8,9-tetrahydropyrimido[5,4-b]indolizine-8-yl)vinylsulfamide] | 10 to 100 | – | –
7 | CC(C)(C)C=C(C#N)C(=O)N[C@@H]1CCc2c(-c3ccc(Oc4ccccc4)cc3)c3c(N)ncnc3n2C1 [Compound S4, (R)—N-(4-amino-5-(4-phenoxyphenyl)-6,7,8,9-tetrahydropyrimido[5,4-b]indolizine-8-yl)-2-cyano-4,4-dimethylpent-2-enamide] | > 100 | – | –
8 | C=CC(=O)N[C@@H]1CCc2c(-c3ccc(Oc4ccccc4)cc3)c3c(N)ncnc3n2C1 [Compound S1, (R)—N-(4-amino-5-(4-phenoxyphenyl)-6,7,8,9-tetrahydropyrimido[5,4-b]indolizine-8-yl)acrylamide] | – | 94700 ± 45100 | cell activity against human B lymphoma Ramos cells ([2]; qualitative statement): low cell activity; IC50 [3]: 5.8 nM
9 | CC#CC(=O)N[C@@H]1CCc2c(-c3ccc(Oc4ccccc4)cc3)c3c(N)ncnc3n2C1 [Compound S10, (R)—N-(4-amino-5-(4-phenoxyphenyl)-6,7,8,9-tetrahydropyrimido[5,4-b]indolizine-8-yl)But-2-ynylamide] | – | 8720 ± 8580 | IC50 [1]: 1 to 10 nM; IC50 [3]: 30 nM
10 | C=CC(=O)NC(C)C(=O)N[C@@H]1CCc2c(-c3ccc(Oc4ccccc4)cc3)c3c(N)ncnc3n2C1 (stereo partly drawn) [Compound S7, N-(1-(((R)-4-amino-5-(4-phenoxyphenyl)-6,7,8,9-tetrahydropyrimido[5,4-b]indolizine-8-yl)imino)-1-oxoprop-2-yl) acrylamide] | 10 to 100 | – | –

Now from value to compound, other results behind:

Row | IC50 [1, 4] [nM] | IC50 [2] [nM] | Compound | other results
11 | 1 to 10 | – | C=CC(=O)N[C@H]1Cn2c(c(-c3ccc(Oc4ccccc4)cc3)c3c(N)ncnc32)C1=C [Compound S18, (R)—N-(4-amino-6-methylidene-5-(4-phenoxyphenyl)-7,8-dihydro-6H-pyrimido[5,4-b]pyrrolizin-7-yl)acrylamide] | –
12 | 1 to 10 | – | C=CC(=O)N[C@@H]1CCc2c(-c3ccc(C(=O)Nc4ccc(F)cn4)cc3)c3c(N)ncnc3n2C1 [Compound S15, (R)-4-(8-acrylamido-4-amino-6,7,8,9-tetrahydropyrimido[5,4-b]indolizine-5-yl)-N-(5-fluoropyridin-2-yl)benzamide] | –
13 | 1 to 10 | – | CC#CC(=O)N[C@@H]1CCc2c(-c3ccc(C(=O)Nc4ccccn4)cc3)c3c(N)ncnc3n2C1 [Compound S14, (R)-4-(4-amino-8-(but-2-ynylamide)-6,7,8,9-tetrahydropyrimido[5,4-b]indolizine-5-yl)-N-(pyridin-2-yl)benzamide] | –
14 | < 1 | – | C=CC(=O)N[C@@H]1CCc2c(-c3ccc(Oc4ccc(F)cc4)cc3)c3c(N)ncnc3n2C1 [Compound S11, (R)—N-(4-amino-5-(4-(4-fluorophenoxy)phenyl)-6,7,8,9-tetrahydropyrimido[5,4-b]indolizine-8-yl)acrylamide] | –
15 | 1 to 10 | – | C=CC(=O)N[C@H]1Cn2c(c(-c3ccc(Oc4ccccc4)cc3)c3c(N)ncnc32)C1C (stereo partly drawn) [Compound S21, N-((7R)-4-amino-6-methyl-5-(4-phenoxyphenyl)-7,8-dihydro-6H-pyrimido[5,4-b]pyrrolizin-7-yl)acrylamide] | –
16 | 1 to 10 | – | C=CC(=O)N[C@@H]1CCc2c(-c3ccc(C(=O)Nc4ccccn4)cc3)c3c(N)ncnc3n2C1 [Compound S13, (R)-4-(8-acrylamido-4-amino-6,7,8,9-tetrahydropyrimido[5,4-b]indolizine-5-yl)-N-(pyridin-2-yl)benzamide] | –
17 | < 1 | – | C=CC(=O)N[C@@H]1CCc2c(-c3ccc(Oc4ccc(C(F)(F)F)cc4)cc3)c3c(N)ncnc3n2C1 [Compound S12, (R)—N-(4-amino-5-(4-(4-(trifluoromethyl)phenoxy)phenyl)-6,7,8,9-tetrahydropyrimido[5,4-b]indolizine-8-yl)acrylamide] | –
18 | 1 to 10 | 5500 ± 1000 | C=CC(=O)NCC(=O)N[C@@H]1CCc2c(-c3ccc(Oc4ccccc4)cc3)c3c(N)ncnc3n2C1 [Compound S6, (R)—N-(2-((4-amino-5-(4-phenoxyphenyl)-6,7,8,9-tetrahydropyrimido[5,4-b]indolizine-8-yl)amino)-2-oxoethyl)acrylamide] | –
19 | 1 to 10 | – | C=CC(=O)N[C@H]1Cn2c(c(-c3ccc(C(=O)Nc4ccccn4)cc3)c3c(N)ncnc32)C1C (stereo partly drawn) [Compound S22, 4-((7R)-7-acrylamido-4-amino-6-methyl-7,8-dihydro-6H-pyrimido[5,4-b]pyrrolizin-5-yl)-N-(pyridin-2-yl)benzamide] | –
20 | 1 to 10 | – | C=CC(=O)N[C@@H]1CCc2c(-c3ccc(C(=O)N[C@@H](COC)c4ccccc4)cc3)c3c(N)ncnc3n2C1 [Compound S17, 4-((R)-8-acrylamido-4-amino-6,7,8,9-tetrahydropyrimido[5,4-b]indolizine-5-yl)-N—((R)-2-methoxy-1-phenylethyl)benzamide] | –
21 | < 1 | 6600 ± 2100 | CN(C)C/C=C/C(=O)N[C@@H]1CCc2c(-c3ccc(Oc4ccccc4)cc3)c3c(N)ncnc3n2C1 [Compound S5, (R,E)-N-(4-amino-5-(4-phenoxyphenyl)-6,7,8,9-tetrahydropyrimido[5,4-b]indolizine-8-yl)-4-(dimethylamino)but-2-enamide] | –
22 | 1 to 10 | – | C=CC(=O)N[C@@H]1CCc2c(-c3ccc(C(=O)Nc4cc(C(F)(F)F)ccn4)cc3)c3c(N)ncnc3n2C1 [Compound S16, (R)-4-(8-acrylamido-4-amino-6,7,8,9-tetrahydropyrimido[5,4-b]indolizine-5-yl)-N-(4-(trifluoromethyl)pyridin-2-yl)benzamide] | –
